This is an account of results in BindingDB's records for doi:10.1016/s0960-894x(03)00389-5 (National Institute On Drug Abuse-Intramural Research Program, 2003).

Test [1] is described as follows: Agonistic activity of quinpirole stimulation of mitogenesis in human Dopamine receptor D3 transfected CHO cells.
A short description of test [2]: Agonistic activity of quinpirole stimulation of mitogenesis in human dopamine D3 transfected CHO cells.

A value given as a limit tells only on which side of the number the result lay.

Regarding `O=C(NC/C=C/CN1CCN(c2cccc(Cl)c2Cl)CC1)c1ccccc1` [N-{(E)-4-[4-(2,3-Dichloro-phenyl)-piperazin-1-yl]-but-2-enyl}-benzamide], the EC50 (in general, the midpoint of the concentration-response curve) in test [1] was over 10 µM.
On to `O=C(NC/C=C\CN1CCN(c2cccc(Cl)c2Cl)CC1)c1ccccc1` [N-{(Z)-4-[4-(2,3-Dichloro-phenyl)-piperazin-1-yl]-but-2-enyl}-benzamide], for which the EC50 in test [2] was over 10 µM.
